Laboratory results taken from ChEMBL document CHEMBL1137071, “Phenyl thiazolyl urea and carbamate derivatives as new inhibitors of bacterial cell-wall biosynthesis” (Bioorg Med Chem Lett, 2004).
Values after ≈ are worked out from the molar mass of the structure shown. Each block holds one molecule with its values, some of them ahead of it.

Assays:
Assay type in all cases: functional
[1] = tested on: Staphylococcus aureus; experiment: Antimicrobial activity against Staphylococcus aureus GC 4543 (MSSA); Not active; 16->128
[2] = tested on: Escherichia coli; experiment: Antimicrobial activity against Escherichia coli GC 4559; Not active; 16->128
[3] = tested on: Staphylococcus aureus; experiment: Antimicrobial activity against Staphylococcus aureus GC 2216 (ATCC); Not active; 16->128
[4] = tested on: Enterococcus faecalis; experiment: Antimicrobial activity against Enterococcus faecalis GC 4555 (ATCC); Not active; 16->128
[5] = tested on: Streptococcus pneumoniae; experiment: Antimicrobial activity against Streptococcus pneumoniae GC1894 (PRSP) in the presence of 4% bovine serum albumin; Not active; 16->128
[6] = Inhibitory activity against MurB
[7] = tested on: Escherichia coli; experiment: Antimicrobial activity against Escherichia coli GC 4560; Not active; 16->128
[8] = tested on: Staphylococcus aureus; experiment: Antimicrobial activity against Staphylococcus aureus GC 1131 (MRSA); Not active; 16->128
[9] = tested on: Enterococcus faecalis; experiment: Antimicrobial activity against Enterococcus faecalis GC 2242 (VRE); Not active; 16->128
[10] = tested on: Streptococcus pneumoniae; experiment: Antimicrobial activity against Streptococcus pneumoniae GC1894 (PRSP); Not active; 16->128
[11] = tested on: Staphylococcus; experiment: Antimicrobial activity against MSCNS (methicillin-susceptible coagulase-negative staphylococci) GC 646; Not active; 16->128
[12] = tested on: Enterococcus faecalis; experiment: Antimicrobial activity against Enterococcus faecalis GC 4555 (ATCC); Not active; 0.5-8
[13] = tested on: Enterococcus faecalis; experiment: Antimicrobial activity against Enterococcus faecalis GC 2242 (VRE); Not active; 0.5-8
[14] = tested on: Staphylococcus aureus; experiment: Antimicrobial activity against Staphylococcus aureus GC 1131 (MRSA); Not active; 0.5-8
[15] = tested on: Staphylococcus aureus; experiment: Antimicrobial activity against Staphylococcus aureus GC 4543 (MSSA); Not active; 0.5-8
[16] = tested on: Escherichia coli; experiment: Antimicrobial activity against Escherichia coli GC 4560; Not active; 0.5-8
[17] = tested on: Streptococcus pneumoniae; experiment: Antimicrobial activity against Streptococcus pneumoniae GC1894 (PRSP) in the presence of 4% bovine serum albumin; Not active; 0.5-8
[18] = tested on: Escherichia coli; experiment: Antimicrobial activity against Escherichia coli GC 4559; Not active; 0.5-8
[19] = tested on: Streptococcus pneumoniae; experiment: Antimicrobial activity against Streptococcus pneumoniae GC1894 (PRSP); Not active; 0.5-8
[20] = tested on: Staphylococcus; experiment: Antimicrobial activity against MSCNS (methicillin-susceptible coagulase-negative staphylococci) GC 646; Not active; 0.5-8
[21] = tested on: Staphylococcus aureus; experiment: Antimicrobial activity against Staphylococcus aureus GC 2216 (ATCC); Not active; 0.5-8
[22] = tested on: Enterococcus faecalis; experiment: Antimicrobial activity against Enterococcus faecalis GC 4555 (ATCC); Not active; 1-4
[23] = tested on: Escherichia coli; experiment: Antimicrobial activity against Escherichia coli GC 4559; Not active; 1-4
[24] = tested on: Staphylococcus aureus; experiment: Antimicrobial activity against Staphylococcus aureus GC 4543 (MSSA); Not active; 1-4
[25] = tested on: Streptococcus pneumoniae; experiment: Antimicrobial activity against Streptococcus pneumoniae GC1894 (PRSP); Not active; 1-4
[26] = tested on: Enterococcus faecalis; experiment: Antimicrobial activity against Enterococcus faecalis GC 2242 (VRE); Not active; 1-4
[27] = tested on: Streptococcus pneumoniae; experiment: Antimicrobial activity against Streptococcus pneumoniae GC1894 (PRSP) in the presence of 4% bovine serum albumin; Not active; 1-4
[28] = tested on: Escherichia coli; experiment: Antimicrobial activity against Escherichia coli GC 4560; Not active; 1-4
[29] = tested on: Staphylococcus aureus; experiment: Antimicrobial activity against Staphylococcus aureus GC 2216 (ATCC); Not active; 1-4
[30] = tested on: Staphylococcus aureus; experiment: Antimicrobial activity against Staphylococcus aureus GC 1131 (MRSA); Not active; 1-4
[31] = tested on: Staphylococcus; experiment: Antimicrobial activity against MSCNS (methicillin-susceptible coagulase-negative staphylococci) GC 646; Not active; 1-4
[32] = tested on: Escherichia coli; experiment: Antimicrobial activity against Escherichia coli GC 4560; Not active; 32-128
[33] = tested on: Streptococcus pneumoniae; experiment: Antimicrobial activity against Streptococcus pneumoniae GC1894 (PRSP) in the presence of 4% bovine serum albumin; Not active; 32-128
[34] = tested on: Staphylococcus aureus; experiment: Antimicrobial activity against Staphylococcus aureus GC 2216 (ATCC); Not active; 32-128
[35] = tested on: Escherichia coli; experiment: Antimicrobial activity against Escherichia coli GC 4559; Not active; 32-128
[36] = tested on: Streptococcus pneumoniae; experiment: Antimicrobial activity against Streptococcus pneumoniae GC1894 (PRSP); Not active; 32-128
[37] = tested on: Staphylococcus aureus; experiment: Antimicrobial activity against Staphylococcus aureus GC 1131 (MRSA); Not active; 32-128
[38] = tested on: Enterococcus faecalis; experiment: Antimicrobial activity against Enterococcus faecalis GC 4555 (ATCC); Not active; 32-128
[39] = tested on: Staphylococcus aureus; experiment: Antimicrobial activity against Staphylococcus aureus GC 4543 (MSSA); Not active; 32-128
[40] = tested on: Enterococcus faecalis; experiment: Antimicrobial activity against Enterococcus faecalis GC 2242 (VRE); Not active; 32-128
[41] = tested on: Staphylococcus; experiment: Antimicrobial activity against MSCNS (methicillin-susceptible coagulase-negative staphylococci) GC 646; Not active; 32-128

MIC [1]: > 128 µg/mL | MIC [2]: > 128 µg/mL | MIC [3]: > 128 µg/mL | MIC [4]: > 128 µg/mL | MIC [5]: > 128 µg/mL | IC50 [6]: > 25 µg/mL | MIC [7]: > 128 µg/mL | MIC [8]: > 128 µg/mL | MIC [9]: > 128 µg/mL | MIC [10]: > 128 µg/mL | MIC [11]: > 128 µg/mL
Structure (SMILES): O=C(Nc1ccc(Cl)c(Cl)c1)Nc1nncs1

MIC [12]: 8 µg/mL (≈ 28.4 µM) | MIC [13]: 8 µg/mL (≈ 28.4 µM) | MIC [14]: 8 µg/mL (≈ 28.4 µM) | MIC [15]: 8 µg/mL (≈ 28.4 µM) | MIC [16]: 8 µg/mL (≈ 28.4 µM) | MIC [17]: 8 µg/mL | IC50 [6]: 17 µg/mL (≈ 60.3 µM) | MIC [18]: 8 µg/mL (≈ 28.4 µM) | MIC [19]: 8 µg/mL (≈ 28.4 µM) | MIC [20]: 8 µg/mL (≈ 28.4 µM) | MIC [21]: 8 µg/mL (≈ 28.4 µM)
Structure (SMILES): O=C(Nc1ccc(Cl)c(Cl)c1)Nc1ccccn1

MIC [22]: 4 µg/mL (≈ 11.7 µM) | MIC [23]: 4 µg/mL (≈ 11.7 µM) | MIC [24]: 4 µg/mL (≈ 11.7 µM) | MIC [25]: 4 µg/mL (≈ 11.7 µM) | MIC [26]: 4 µg/mL (≈ 11.7 µM) | MIC [27]: 4 µg/mL | MIC [28]: 4 µg/mL (≈ 11.7 µM) | IC50 [6]: 23 µg/mL (≈ 67 µM) | MIC [29]: 4 µg/mL (≈ 11.7 µM) | MIC [30]: 4 µg/mL (≈ 11.7 µM) | MIC [31]: 4 µg/mL (≈ 11.7 µM)
Structure (SMILES): COC(=O)c1cnn(C)c1NC(=O)Nc1ccc(Cl)c(Cl)c1

MIC [32]: > 128 µg/mL | MIC [33]: > 128 µg/mL | MIC [34]: > 128 µg/mL | MIC [35]: > 128 µg/mL | MIC [36]: > 128 µg/mL | MIC [37]: > 128 µg/mL | MIC [38]: > 128 µg/mL | IC50 [6]: > 25 µg/mL | MIC [39]: > 128 µg/mL | MIC [40]: > 128 µg/mL | MIC [41]: > 128 µg/mL
Structure (SMILES): O=C(Nc1ccc(Cl)c(Cl)c1)Nc1cccc2cccnc12
